These results are taken from PMC7821381, “Multi-Targeted Anticancer Activity of Imidazolate Phosphane Gold(I) Compounds by Inhibition of DHFR and TrxR in Breast Cancer Cells” (Frontiers in Chemistry, 2021).

For assay [1], the system named is A17 cells. Description: MTT cell viability assay on A17 cells. The assay is classed as cell-based, murine. As to conditions: A17, 48 h, ± S. D. From the text:
Human MDA-MB-231 (ER–/PR–/HER2–) and SK-BR-3 (ER–/PR–/HER2+) cells were obtained from American Type Culture Collection (Rockville, MD) and cultured in Dulbecco's Modified Essential Medium (DMEM, Gibco, Life Technologies) supplemented with 10% fetal bovine serum (FBS, Gibco, Life Technologies) and 1% penicillin–streptomycin (Gibco, Life Technologies). A17 cells were established from a spontaneous lobular carcinoma that arose in an FVB/neuT mouse (Galiè et al., [2005]), and maintained in DMEM plus 20% FBS and 1% penicillin-streptomycin. Cells were cultured at 37°C under humidified atmosphere with 5% CO2.
Stock solutions were prepared for each gold(I) compound (50 mM) using dimethyl sulfoxide (DMSO) (Sigma-Aldrich) as solvent. The effects of gold(I) compounds on SKBR3, A17 and MDA-MB231 cells viability were evaluated by seeding, respectively, 10, ^*10^3, 2.5 ^*10^3, 7, ^*10^3 cells/well in 96 wells plates in complete medium (DMEM supplemented with FBS) and compared to those of cisplatin. The day after, fresh medium containing vehicle alone (DMSO, 1 % v/v final concentration) or increasing concentrations of each compound ranging from 0.1 to 100 μM was added. Cell viability was determined using a MTT [3-(4,5-dimethylthiazol-2-yl)-2,5-diphenyl-2H-tetrazolium bromide Sigma Aldrich, St. Louis, MO] assay, which is based on the conversion of MTT to formazan crystals by mitochondrial enzymes, after 24, 48, and 72 h. The formazan deposits were dissolved in DMSO and the absorbance of each well was measured at 540 nm in Multiskan Ascent 96/384 Plate Reader. Each drug concentration was evaluated with 8 replicates and each experiment was repeated three times. At the end of the experiments a dose–response curve was plotted, and the IC50 concentrations were determined. […] Quantitative data are presented as means ± SEM. […]
IC50 values were calculated for each of the cell lines tested, by fitting the concentration-effect curves data obtained in the three experiments with the sigmoid-Emax model using nonlinear regression, weighted by the reciprocal of the square of the predicted effect.

Assay [2] has as its system thioredoxin reductase (TrxR). The note with it: MDA-MB231, 12 h treatment, 16 μM (maximum inhibition); control 3.01 ± 0.01. The method, then: The assay was performed as previously reported (Galassi et al., [2012]) in 0.2 M Na, K-phosphate buffer (pH 7.4) containing 2 mM EDTA. The assay contained 0.12 mM NADPH and different amounts of cell lysate. The reaction was initiated by the addition of 3 mM 5,5′-dithiobis (2-nitrobenzoic acid) (DTNB) and the increase of absorbance was monitored at 412 nm over 5 min at 25°C.
Fig. 4S. Effects of gold(I) compounds 5 and 6 on redox enzyme thioredoxine reductase in MDA-MB231 cancer cells. The cells were incubated for 12 hours with different amount of tested compounds 5 and 6. After incubation, cells were washed twice with PBS and lysed. TrxR activity was tested by measuring NADPH-dependent reduction of DTNB (Galassi et al, 2012).

Assay [3] has as its system EB-ct-DNA. Description: Competitive binding fluorescence study with EtBr (EB-ct-DNA). More on the design: species or system calf. The note with it: competitive EtBr displacement, fluorescence quenching, pH 7.4. The source says: EtBr weakly emits fluorescence in aqueous solutions (Pasternack et al., [1983]), however in presence of ct-DNA strongly emits at ~600 nm due to strong intercalation between adjacent DNA base pairs. Ethidium bromide (EB) can be employed as a probe for the spectroscopic study of the interaction between DNA and intercalating species because of a 24-fold decrease in its fluorescence when displaced from an intercalation site by the addition of a competitive binding molecule probably due to decreasing in the number of binding sites accessible to EtBr (Tong et al., [2012]). […] Fluorescence quenching spectra were recorded using a Hitachi 4,500 spectrofluorometer with an excitation wavelength of 490 nm and emission spectrum 500–700 nm. The fluorescence spectra were recorded and the fluorescence value of the decrease in emission spectra was corrected according to the relationship:
where Fc and Fm are the corrected and measured fluorescence, respectively. A1 and A2 are the absorbance of tested compounds at the exciting and emission wavelengths. For fluorescence quenching experiments, Stern-Volmer's equation was used (Equation 3): […]

The target of assay [4] is T1, Human apoTF (ATF) (Homo sapiens, UniProt P02787).
T1 construct: purchased Sigma Aldrich
T1 sequence (P02787 20-698): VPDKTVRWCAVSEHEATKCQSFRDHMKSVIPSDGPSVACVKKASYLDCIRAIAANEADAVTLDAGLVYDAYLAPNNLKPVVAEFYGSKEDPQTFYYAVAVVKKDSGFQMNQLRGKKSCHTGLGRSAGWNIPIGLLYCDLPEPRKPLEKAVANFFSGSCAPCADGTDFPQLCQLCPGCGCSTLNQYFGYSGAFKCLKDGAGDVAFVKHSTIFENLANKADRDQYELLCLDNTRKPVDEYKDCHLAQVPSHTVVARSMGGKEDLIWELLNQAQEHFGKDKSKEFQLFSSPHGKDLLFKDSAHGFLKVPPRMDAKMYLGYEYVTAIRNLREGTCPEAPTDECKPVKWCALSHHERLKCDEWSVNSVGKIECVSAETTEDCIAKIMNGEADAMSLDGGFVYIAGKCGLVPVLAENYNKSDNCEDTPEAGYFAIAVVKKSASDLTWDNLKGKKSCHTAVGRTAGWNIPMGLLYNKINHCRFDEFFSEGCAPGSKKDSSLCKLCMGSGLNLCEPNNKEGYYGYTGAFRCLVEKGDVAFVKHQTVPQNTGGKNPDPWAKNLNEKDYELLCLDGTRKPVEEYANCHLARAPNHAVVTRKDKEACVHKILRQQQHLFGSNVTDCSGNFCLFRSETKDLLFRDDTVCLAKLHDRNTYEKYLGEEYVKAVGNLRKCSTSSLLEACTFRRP
Briefly: Transferrin (ATF) fluorescence quenching. The assay is classed as binding. The note with it: Stern-Volmer constant, Tris-HCl pH 7.4, 25°C. The method, then:
Human apoTF (ATF) was purchased from Sigma Aldrich and its concentration was determined by measuring the absorbance at 278 nm (ε = 92,300 M^−1 cm^−1). To evaluate if compounds 5 and 6 were able to bind to ATF in vitro, fluorescence spectra were recorded from 300 nm to 450 nm upon tryptophan excitation at 285 nm. Fluorimetric titrations were performed by titrating a 2 mL sample (prepared in 10 mM Tris-HCl buffer pH 7.4, 10 mM NaCl) containing human ATF (12.5 μM) with incremental additions of different aliquots of gold-complexes (5 mM in DMSO). Protein fluorescence intensity was recorded after each successive addition of complex solution and equilibration (5 min). The value of Stern Volmer constants of the different metal complexes to ATF were evaluated following Equation 3 and fluorescent values were corrected by Equation 2. All titrations were performed at room temperature (25°C) and averages between two trials are reported.

Assay [5] has as its system BLBC tumors. Also on record: method as in Gambini et al., 2018. As to conditions: ref Gambini et al., 2018; cited from earlier work.

In general, IC50 refers to the concentration that inhibits the measured activity by half. Low values mean inhibition by little substance, high ones a need for much substance. The substance “4,5-dichloro-imidazolate-1yl-gold(I)-(triphenylphosphane) [Compound 6]” came in with an IC50 in assay [1] of 14.4 ± 0.7 µM. Also, in assay [2], the “Specific enzymatic activity of TrxR” value was 1.95 ± 0.06 (16 μM) mU/mg. The “EB-ct-DNA Ksv” value in assay [3] is listed as 4.22 ± 0.34 10^3 M^−1. Moreover, the “ATF Ksv” value in assay [4] is recorded as 1.51 ± 0.55 10^4 M^−1. In addition, the “activity against BLBC tumors transplanted in syngeneic mice compared with cisplatin” value in assay [5] is “much more active than cisplatin”.
Substance “4,5-dicyano-imidazolate-1yl-gold(I)-(triphenylphosphane) [Compound 5]” gave an IC50 in assay [1] of 16.2 ± 0.59 µM. Moreover, in assay [2], the “Specific enzymatic activity of TrxR” value is on record as 1.59 ± 0.03 (16 μM) mU/mg. In assay [3], the “EB-ct-DNA Ksv” value was 1.55 ± 0.34 10^3 M^−1. Also, the “ATF Ksv” value in assay [4] is 1.93 ± 0.44 10^4 M^−1. In addition, in assay [5], the “activity against BLBC tumors transplanted in syngeneic mice compared with cisplatin” value is on record as “much more active than cisplatin”.
